Experiments:
[1] = molecular target: Protein arginine N-methyltransferase 5 (Homo sapiens, UniProt O14744); experiment: Inhibition of PRMT5 methyltransferase activity in human MTAP -/- Calu-6 cells assessed as reduction in SmB SDMA levels measured after 2 days by HTRF based assay; format: cell-based
[2] = Lipophilicity, logD of the compound in octanol and phosphate buffer at pH 7.4 incubated for 4 hrs under shaking condition by liquid chromatography tandem mass spectrometry; format: physicochemical
[3] = Metabolic stability in human liver microsomes assessed as intrinsic clearance measured upto 30 mins in presence of NADPH by LC/MS/MS analysis; format: ADME, Microsome; settings: read-out: CLH
[4] = Efflux ratio of apparent permeability across […] in MDCK-MDR1 incubated for 120 mins by LC-MS analysis; format: ADME, cell-based, Canis lupus familiaris; settings: dog, mdck-mdr1, 2 h

Chain of Protein arginine N-methyltransferase 5 (O14744 whole entry): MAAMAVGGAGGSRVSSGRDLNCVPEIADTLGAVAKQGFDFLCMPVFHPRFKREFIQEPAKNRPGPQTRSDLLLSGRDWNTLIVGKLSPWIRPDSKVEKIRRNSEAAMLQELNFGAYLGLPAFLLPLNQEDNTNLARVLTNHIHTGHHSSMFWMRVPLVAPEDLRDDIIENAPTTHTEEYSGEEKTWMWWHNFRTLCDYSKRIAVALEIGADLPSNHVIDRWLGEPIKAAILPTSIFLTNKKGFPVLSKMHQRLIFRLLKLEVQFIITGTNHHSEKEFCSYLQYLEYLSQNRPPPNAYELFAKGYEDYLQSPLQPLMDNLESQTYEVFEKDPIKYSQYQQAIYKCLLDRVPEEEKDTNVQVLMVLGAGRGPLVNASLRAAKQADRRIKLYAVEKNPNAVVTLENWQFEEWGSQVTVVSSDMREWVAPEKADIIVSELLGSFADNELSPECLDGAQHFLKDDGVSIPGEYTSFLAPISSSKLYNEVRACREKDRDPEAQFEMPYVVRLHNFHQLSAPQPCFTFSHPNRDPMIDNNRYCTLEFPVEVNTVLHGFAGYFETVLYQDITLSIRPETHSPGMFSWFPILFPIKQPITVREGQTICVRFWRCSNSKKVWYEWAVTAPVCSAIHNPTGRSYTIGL

SMILES	IC50 [1] [nM]	logD at 4 h [2]	microsomal CLint [3] [µL/min/mg]	Ratio [4]
Cc1cc2ccc(Cn3c(C(=O)N(C)c4ccccc4)cn(C)c3=O)cc2nc1N	2	1.6	395	35
Cc1cc2ccc(Cn3c(C(=O)N(C)c4ccccc4)nn(C)c3=O)cc2nc1N	2	1.9	97	6
Cc1cc2ccc(Cn3c(C(=O)N(C)c4ccccc4)cccc3=O)cc2nc1N	17	2	422	22
Cc1cc2ccc(Cn3c(C(=O)N(C)c4ccccc4)noc3=O)cc2nc1N	49	2.9	> 700	1
Cc1cc2ccc(Cn3c(C(=O)N(C)c4ccccc4)nccc3=O)cc2nc1N	39	2.1	299	8

Continued, values first:

IC50 [1] [nM]	logD at 4 h [2]	microsomal CLint [3] [µL/min/mg]	Ratio [4]	SMILES
29	1.1	36		Cc1cc2ncc(Cn3c(C(=O)N(C)c4ccccc4)cn(C)c3=O)cc2nc1N
1	1.8	240	2	Cc1cc2ccc(Cn3c(C(=O)N(C)c4ccccc4)coc3=O)cc2nc1N
21	0.9	< 25	17	Cc1cc2ccc(Cn3c(C(=O)N(C)c4ccccn4)nn(C)c3=O)cc2nc1N
50	2.1	547	3	Cc1cc2ccc(Cn3nncc3C(=O)N(C)c3ccccc3)cc2nc1N
14	1.8	89	1	Cc1cc2ccc(Cn3nccc3C(=O)N(C)c3ncccc3F)cc2nc1N
9	0.8	28	14	Cc1cc2ccc(Cn3c(C(=O)N(C)c4ccccn4)cn(C)c3=O)cc2nc1N

— ChEMBL document CHEMBL5126629, “Paradoxical Increase of Permeability and Lipophilicity with the Increasing Topological Polar Surface Area within a Series of PRMT5 Inhibitors” (J Med Chem, 2022)
